Residues, ends and D or L forms follow the SMILES beside them.
Tests used:
[1] = biological target: T1, Scrib PDZ-1 domain (Homo sapiens, UniProt Q14160); assay: In-solution fluorescence polarization binding of peptides to Scrib PDZ1; conditions: Kd value of 100 µM applied as binding cutoff, NB without definition, read-out: Kd (µM) PDZ1
T1 construct: ROC curves of DomPep prediction for the three Scrib PDZ-1/2/3 domains

[2] = biological target: T2, Scrib PDZ-2 domain (Homo sapiens, UniProt Q14160); assay: In-solution fluorescence polarization binding of peptides to Scrib PDZ2; conditions: Kd value of 100 µM applied as binding cutoff, NB without definition, read-out: Kd (µM) PDZ2
T2 construct: ROC curves of DomPep prediction for the three Scrib PDZ-1/2/3 domains
T2 sequence (Q14160 862-950 limits assumed): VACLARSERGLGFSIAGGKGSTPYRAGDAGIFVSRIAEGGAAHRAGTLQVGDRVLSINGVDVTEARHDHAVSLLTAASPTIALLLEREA

T1 sequence (Q14160 728-815 limits assumed): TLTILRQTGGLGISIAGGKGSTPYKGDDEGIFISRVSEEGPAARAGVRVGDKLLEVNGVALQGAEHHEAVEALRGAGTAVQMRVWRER

SMILES	Kd [1] [µM]	Kd [2] [µM]
CC(C)C[C@H](NC(=O)[C@@H](NC(=O)[C@H](CC(N)=O)NC(=O)[C@@H](N)CCCNC(=N)N)[C@@H](C)O)C(=O)N[C@@H](Cc1ccc(O)cc1)C(=O)N[C@@H](Cc1ccccc1)C(=O)N[C@@H](CO)C(=O)N[C@H](C(=O)N[C@@H](CC(=O)O)C(=O)N[C@H](C(=O)O)C(C)C)[C@@H](C)O [ABR] (H-RNTLYFSTDV-OH)	12.5	10.4
CC(C)C[C@H](NC(=O)[C@H](CO)NC(=O)[C@@H](NC(=O)[C@@H](NC(=O)[C@@H](NC(=O)[C@H](Cc1ccccc1)NC(=O)[C@@H](NC(=O)[C@H](CC(=O)O)NC(=O)[C@H](CCC(=O)O)NC(=O)[C@@H]1CCCN1)[C@@H](C)O)[C@@H](C)O)C(C)C)[C@@H](C)O)C(=O)O [AHDC1] (H-PEDTFTVTSL-OH)	19.2	> 100
CC(C)C[C@H](NC(=O)[C@H](CO)NC(=O)[C@@H](NC(=O)[C@H](CC(=O)O)NC(=O)[C@@H](NC(=O)[C@H](CC(C)C)NC(=O)[C@H](CCC(N)=O)NC(=O)CNC(=O)[C@@H]1CCCN1C(=O)[C@@H](N)CCC(N)=O)C(C)C)[C@@H](C)O)C(=O)O [ANKS4B] (H-QPGQLVDTSL-OH)	> 100	> 100
CC(C)C[C@H](NC(=O)[C@H](Cc1ccc(O)cc1)NC(=O)[C@H](CO)NC(=O)CNC(=O)[C@H](CO)NC(=O)[C@@H](N)Cc1c[nH]cn1)C(=O)N[C@H](C(=O)N[C@H](C(=O)N[C@@H](CO)C(=O)N[C@H](C(=O)O)C(C)C)[C@@H](C)O)C(C)C [APC] (H-HSGSYLVTSV-OH)	12.3	9.5
CC(C)C[C@H](NC(=O)[C@@H]1CCCN1C(=O)[C@@H](NC(=O)[C@H](CCC(=O)O)NC(=O)[C@H](CCCCN)NC(=O)[C@H](CCCCN)NC(=O)[C@H](Cc1ccc(O)cc1)NC(=O)[C@H](CC(N)=O)NC(=O)[C@H](Cc1ccccc1)NC(=O)[C@@H](N)CO)[C@@H](C)O)C(=O)O [ARD50] (H-SFNYKKETPL-OH)	23.6	34.3
CSCC[C@H](N)C(=O)N[C@@H](CCC(=O)O)C(=O)N[C@@H](CCCNC(=N)N)C(=O)N[C@@H](CC(C)C)C(=O)N[C@@H](CCCNC(=N)N)C(=O)N[C@H](C(=O)N[C@@H](CCC(=O)O)C(=O)N[C@H](C(=O)N[C@@H](CC(=O)O)C(=O)N[C@H](C(=O)O)C(C)C)[C@@H](C)O)C(C)C [ARHGEF16] (H-MERLRVETDV-OH)	27.5	7.7
CC(C)C[C@H](NC(=O)[C@@H](NC(=O)CNC(=O)[C@H](CC(N)=O)NC(=O)[C@H](CCCCN)NC(=O)[C@H](CO)NC(=O)[C@H](CC(=O)O)NC(=O)[C@H](Cc1ccc(O)cc1)NC(=O)[C@@H](N)CCCNC(=N)N)[C@@H](C)O)C(=O)N[C@H](C(=O)O)C(C)C [C11orf52] (H-RYDSKNGTLV-OH)	> 100	> 100
CC[C@H](C)[C@H](N)C(=O)N[C@@H](CC(C)C)C(=O)N[C@@H](CCCNC(=N)N)C(=O)N[C@@H](CCCCN)C(=O)N[C@@H](CO)C(=O)N[C@H](C(=O)N[C@H](C(=O)N[C@H](C(=O)N[C@H](C(=O)N[C@H](C(=O)O)C(C)C)[C@@H](C)O)[C@@H](C)O)[C@@H](C)O)[C@@H](C)O [DSC54] (H-ILRKSTTTTV-OH)	> 100	> 100
CSCC[C@H](NC(=O)CNC(=O)[C@H](CC(N)=O)NC(=O)[C@@H](NC(=O)[C@H](CC(C)C)NC(=O)[C@H](CCC(N)=O)NC(=O)[C@@H](N)C(C)C)C(C)C)C(=O)N[C@H](C(=O)N1CCC[C@H]1C(=O)N[C@@H](CC(C)C)C(=O)O)C(C)C [EPHA5] (H-VQLVNGMVPL-OH)	> 100	75.7
CC(C)C[C@H](NC(=O)[C@H](CS)NC(=O)[C@H](Cc1c[nH]cn1)NC(=O)[C@H](CC(C)C)NC(=O)[C@H](C)NC(=O)[C@H](CCC(=O)O)NC(=O)[C@H](CC(C)C)NC(=O)[C@H](CCC(=O)O)NC(=O)[C@@H]1CCCN1C(=O)[C@@H](N)CC(=O)O)C(=O)O [EPHA8] (H-DPELEALHCL-OH)	> 100	24.9
CC(C)C[C@H](NC(=O)[C@H](CO)NC(=O)[C@@H](NC(=O)[C@H](CCC(=O)O)NC(=O)[C@H](CCC(=O)O)NC(=O)[C@H](CS)NC(=O)[C@@H](NC(=O)[C@H](CCCNC(=N)N)NC(=O)[C@@H](NC(=O)[C@@H]1CCCN1)C(C)C)C(C)C)[C@@H](C)O)C(=O)O [FAM105B] (H-PVRVCEETSL-OH)	1.9	17.6
CC[C@H](C)[C@H](NC(=O)[C@H](CC(C)C)NC(=O)[C@H](CCC(N)=O)NC(=O)[C@H](CCSC)NC(=O)[C@H](CC(N)=O)NC(=O)[C@H](Cc1ccccc1)NC(=O)[C@@H](N)CO)C(=O)N[C@@H](CO)C(=O)N[C@@H](CCC(N)=O)C(=O)N[C@H](C(=O)O)C(C)C [FAM126B] (H-SFNMQLISQV-OH)	> 100	> 100
